In ChEMBL document CHEMBL3627608, “Crystal structures of human RIP2 kinase catalytic domain complexed with ATP-competitive inhibitors: Foundations for understanding inhibitor selectivity” (Bioorg Med Chem, 2015):

How the values were obtained:
[1] = target: Serine/threonine-protein kinase WNK3 (Homo sapiens) (UniProt Q9BYP7); assay: Inhibition of WNK3 (unknown origin) at 10 uM after 120 mins P33 radiolabeled kinase activity assay
[2] = target: T1, Protein kinase C zeta type (Homo sapiens) (UniProt Q05513); assay: Inhibition of PKCzeta (unknown origin) at 10 uM after 120 mins P33 radiolabeled kinase activity assay
T1 sequence (whole entry): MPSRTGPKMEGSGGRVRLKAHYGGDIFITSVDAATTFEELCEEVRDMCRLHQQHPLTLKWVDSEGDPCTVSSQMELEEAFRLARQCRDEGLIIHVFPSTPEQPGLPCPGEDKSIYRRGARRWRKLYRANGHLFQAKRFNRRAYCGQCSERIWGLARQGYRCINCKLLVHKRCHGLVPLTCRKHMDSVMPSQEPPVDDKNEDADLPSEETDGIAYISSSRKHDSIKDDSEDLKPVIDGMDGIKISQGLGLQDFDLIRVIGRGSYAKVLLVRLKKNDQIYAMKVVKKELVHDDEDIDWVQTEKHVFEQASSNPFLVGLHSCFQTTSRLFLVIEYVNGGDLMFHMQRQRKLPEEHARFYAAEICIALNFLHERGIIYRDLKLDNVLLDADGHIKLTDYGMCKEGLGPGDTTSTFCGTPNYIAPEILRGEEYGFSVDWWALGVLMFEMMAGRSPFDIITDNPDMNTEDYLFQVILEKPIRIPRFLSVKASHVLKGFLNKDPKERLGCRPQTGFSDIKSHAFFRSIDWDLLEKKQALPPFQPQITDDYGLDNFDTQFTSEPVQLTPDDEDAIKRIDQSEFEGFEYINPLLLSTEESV

[3] = target: T2, Inhibitor of nuclear factor kappa-B kinase subunit alpha (Homo sapiens) (UniProt O15111); assay: Inhibition of IKKalpha (unknown origin) at 10 uM after 120 mins P33 radiolabeled kinase activity assay
T2 sequence (whole entry): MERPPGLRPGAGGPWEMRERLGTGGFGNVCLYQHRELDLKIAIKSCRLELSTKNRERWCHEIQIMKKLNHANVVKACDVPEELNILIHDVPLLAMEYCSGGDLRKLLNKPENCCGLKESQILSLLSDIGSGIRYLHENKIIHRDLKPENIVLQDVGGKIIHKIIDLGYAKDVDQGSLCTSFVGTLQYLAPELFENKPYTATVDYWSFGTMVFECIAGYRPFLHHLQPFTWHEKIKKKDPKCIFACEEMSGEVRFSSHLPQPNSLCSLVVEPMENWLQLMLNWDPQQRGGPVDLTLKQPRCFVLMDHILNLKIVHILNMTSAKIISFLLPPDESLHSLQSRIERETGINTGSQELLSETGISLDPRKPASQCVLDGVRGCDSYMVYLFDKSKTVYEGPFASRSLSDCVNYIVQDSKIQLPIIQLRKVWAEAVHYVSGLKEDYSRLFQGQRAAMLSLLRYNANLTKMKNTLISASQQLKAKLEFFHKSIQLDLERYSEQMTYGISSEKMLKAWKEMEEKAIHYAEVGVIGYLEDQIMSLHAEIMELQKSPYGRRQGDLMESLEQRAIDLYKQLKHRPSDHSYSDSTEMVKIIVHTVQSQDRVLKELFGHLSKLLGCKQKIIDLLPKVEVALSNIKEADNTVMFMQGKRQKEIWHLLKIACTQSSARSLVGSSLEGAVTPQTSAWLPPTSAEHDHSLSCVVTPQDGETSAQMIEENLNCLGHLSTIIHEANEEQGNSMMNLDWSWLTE

[4] = target: T3, Protein kinase C epsilon type (Homo sapiens) (UniProt Q02156); assay: Inhibition of PKCepsilon (unknown origin) at 10 uM after 120 mins P33 radiolabeled kinase activity assay
T3 sequence (whole entry): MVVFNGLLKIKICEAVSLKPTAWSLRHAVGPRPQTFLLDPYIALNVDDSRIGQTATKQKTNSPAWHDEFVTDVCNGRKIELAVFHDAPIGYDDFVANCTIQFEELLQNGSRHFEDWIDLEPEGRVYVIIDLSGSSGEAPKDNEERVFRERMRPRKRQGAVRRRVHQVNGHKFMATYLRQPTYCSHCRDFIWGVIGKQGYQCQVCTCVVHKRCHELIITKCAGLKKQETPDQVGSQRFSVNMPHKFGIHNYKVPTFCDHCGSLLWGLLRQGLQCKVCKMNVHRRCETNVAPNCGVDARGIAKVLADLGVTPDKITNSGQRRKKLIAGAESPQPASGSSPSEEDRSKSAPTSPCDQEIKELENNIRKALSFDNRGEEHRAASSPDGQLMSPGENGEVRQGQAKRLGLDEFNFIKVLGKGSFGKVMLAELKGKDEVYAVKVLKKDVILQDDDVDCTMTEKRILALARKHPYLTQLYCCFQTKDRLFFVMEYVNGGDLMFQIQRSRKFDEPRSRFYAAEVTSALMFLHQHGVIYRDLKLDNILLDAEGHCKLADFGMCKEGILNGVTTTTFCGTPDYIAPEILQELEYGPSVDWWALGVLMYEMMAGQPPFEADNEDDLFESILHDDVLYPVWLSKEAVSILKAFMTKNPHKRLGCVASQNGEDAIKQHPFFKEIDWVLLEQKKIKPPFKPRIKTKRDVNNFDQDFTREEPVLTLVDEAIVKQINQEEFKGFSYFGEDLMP

[5] = target: Aurora kinase B (Homo sapiens) (UniProt Q96GD4); assay: Inhibition of Aurora B (unknown origin) at 10 uM after 120 mins P33 radiolabeled kinase activity assay
[6] = target: T4, Phosphorylase b kinase gamma catalytic chain, liver/testis isoform (Homo sapiens) (UniProt P15735); assay: Inhibition of PHKg2 (unknown origin) at 10 uM after 120 mins P33 radiolabeled kinase activity assay
T4 sequence (whole entry): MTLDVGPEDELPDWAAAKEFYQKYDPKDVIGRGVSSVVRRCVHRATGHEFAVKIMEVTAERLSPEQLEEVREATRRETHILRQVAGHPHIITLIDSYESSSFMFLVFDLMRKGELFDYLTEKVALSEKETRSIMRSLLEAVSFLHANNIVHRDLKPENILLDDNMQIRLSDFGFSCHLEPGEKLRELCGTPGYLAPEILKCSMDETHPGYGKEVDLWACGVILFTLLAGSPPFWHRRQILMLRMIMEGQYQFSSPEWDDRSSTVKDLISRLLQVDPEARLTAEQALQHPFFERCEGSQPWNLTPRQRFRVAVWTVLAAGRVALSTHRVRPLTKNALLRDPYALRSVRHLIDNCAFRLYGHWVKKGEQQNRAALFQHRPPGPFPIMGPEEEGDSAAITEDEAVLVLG

[7] = target: Serine/threonine-protein kinase SIK3 (Homo sapiens) (UniProt Q9Y2K2); assay: Inhibition of SIK3 (unknown origin) at 10 uM after 120 mins P33 radiolabeled kinase activity assay
[8] = target: Casein kinase I isoform alpha (Homo sapiens) (UniProt P48729); assay: Inhibition of CK1alpha1 (unknown origin) at 10 uM after 120 mins P33 radiolabeled kinase activity assay
[9] = target: Serine/threonine-protein kinase 32C (Homo sapiens) (UniProt Q86UX6); assay: Inhibition of STK32C (unknown origin) at 10 uM after 120 mins P33 radiolabeled kinase activity assay
Sequence of Serine/threonine-protein kinase 32C (Homo sapiens) (Q86UX6 whole entry): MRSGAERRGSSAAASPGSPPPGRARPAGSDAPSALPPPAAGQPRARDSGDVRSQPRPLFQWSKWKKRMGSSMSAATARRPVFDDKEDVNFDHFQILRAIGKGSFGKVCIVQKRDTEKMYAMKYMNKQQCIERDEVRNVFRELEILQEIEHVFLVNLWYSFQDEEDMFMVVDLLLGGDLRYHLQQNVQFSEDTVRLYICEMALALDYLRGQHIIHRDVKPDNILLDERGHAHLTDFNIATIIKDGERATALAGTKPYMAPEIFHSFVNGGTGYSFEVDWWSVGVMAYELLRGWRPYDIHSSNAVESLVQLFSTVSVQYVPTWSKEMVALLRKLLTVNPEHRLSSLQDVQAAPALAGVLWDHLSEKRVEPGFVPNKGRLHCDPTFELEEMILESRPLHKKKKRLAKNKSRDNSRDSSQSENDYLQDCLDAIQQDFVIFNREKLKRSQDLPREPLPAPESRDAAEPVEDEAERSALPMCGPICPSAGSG

Sequence of Casein kinase I isoform alpha (Homo sapiens) (P48729 2-337 limits assumed): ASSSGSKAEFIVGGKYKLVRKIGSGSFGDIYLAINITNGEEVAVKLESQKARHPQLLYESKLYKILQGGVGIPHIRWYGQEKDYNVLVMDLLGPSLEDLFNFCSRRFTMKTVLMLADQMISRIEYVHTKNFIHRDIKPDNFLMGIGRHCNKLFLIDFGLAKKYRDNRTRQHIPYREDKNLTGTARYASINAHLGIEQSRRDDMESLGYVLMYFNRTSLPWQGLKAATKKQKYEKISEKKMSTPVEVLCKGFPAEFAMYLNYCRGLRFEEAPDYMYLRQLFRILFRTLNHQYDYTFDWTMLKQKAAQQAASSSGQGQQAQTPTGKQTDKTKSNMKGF
Sequence of Aurora kinase B (Homo sapiens) (Q96GD4 whole entry, canonical isoform): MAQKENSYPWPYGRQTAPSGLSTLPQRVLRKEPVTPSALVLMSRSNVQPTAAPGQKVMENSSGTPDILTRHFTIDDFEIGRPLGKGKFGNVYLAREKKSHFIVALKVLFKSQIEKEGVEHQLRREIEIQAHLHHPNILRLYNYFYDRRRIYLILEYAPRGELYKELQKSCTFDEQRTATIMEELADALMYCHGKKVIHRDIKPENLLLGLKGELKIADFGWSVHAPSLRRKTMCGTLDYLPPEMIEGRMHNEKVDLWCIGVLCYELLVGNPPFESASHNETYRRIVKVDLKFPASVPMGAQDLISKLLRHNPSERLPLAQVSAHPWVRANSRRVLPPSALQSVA
Sequence of Serine/threonine-protein kinase WNK3 (Homo sapiens) (Q9BYP7 whole entry): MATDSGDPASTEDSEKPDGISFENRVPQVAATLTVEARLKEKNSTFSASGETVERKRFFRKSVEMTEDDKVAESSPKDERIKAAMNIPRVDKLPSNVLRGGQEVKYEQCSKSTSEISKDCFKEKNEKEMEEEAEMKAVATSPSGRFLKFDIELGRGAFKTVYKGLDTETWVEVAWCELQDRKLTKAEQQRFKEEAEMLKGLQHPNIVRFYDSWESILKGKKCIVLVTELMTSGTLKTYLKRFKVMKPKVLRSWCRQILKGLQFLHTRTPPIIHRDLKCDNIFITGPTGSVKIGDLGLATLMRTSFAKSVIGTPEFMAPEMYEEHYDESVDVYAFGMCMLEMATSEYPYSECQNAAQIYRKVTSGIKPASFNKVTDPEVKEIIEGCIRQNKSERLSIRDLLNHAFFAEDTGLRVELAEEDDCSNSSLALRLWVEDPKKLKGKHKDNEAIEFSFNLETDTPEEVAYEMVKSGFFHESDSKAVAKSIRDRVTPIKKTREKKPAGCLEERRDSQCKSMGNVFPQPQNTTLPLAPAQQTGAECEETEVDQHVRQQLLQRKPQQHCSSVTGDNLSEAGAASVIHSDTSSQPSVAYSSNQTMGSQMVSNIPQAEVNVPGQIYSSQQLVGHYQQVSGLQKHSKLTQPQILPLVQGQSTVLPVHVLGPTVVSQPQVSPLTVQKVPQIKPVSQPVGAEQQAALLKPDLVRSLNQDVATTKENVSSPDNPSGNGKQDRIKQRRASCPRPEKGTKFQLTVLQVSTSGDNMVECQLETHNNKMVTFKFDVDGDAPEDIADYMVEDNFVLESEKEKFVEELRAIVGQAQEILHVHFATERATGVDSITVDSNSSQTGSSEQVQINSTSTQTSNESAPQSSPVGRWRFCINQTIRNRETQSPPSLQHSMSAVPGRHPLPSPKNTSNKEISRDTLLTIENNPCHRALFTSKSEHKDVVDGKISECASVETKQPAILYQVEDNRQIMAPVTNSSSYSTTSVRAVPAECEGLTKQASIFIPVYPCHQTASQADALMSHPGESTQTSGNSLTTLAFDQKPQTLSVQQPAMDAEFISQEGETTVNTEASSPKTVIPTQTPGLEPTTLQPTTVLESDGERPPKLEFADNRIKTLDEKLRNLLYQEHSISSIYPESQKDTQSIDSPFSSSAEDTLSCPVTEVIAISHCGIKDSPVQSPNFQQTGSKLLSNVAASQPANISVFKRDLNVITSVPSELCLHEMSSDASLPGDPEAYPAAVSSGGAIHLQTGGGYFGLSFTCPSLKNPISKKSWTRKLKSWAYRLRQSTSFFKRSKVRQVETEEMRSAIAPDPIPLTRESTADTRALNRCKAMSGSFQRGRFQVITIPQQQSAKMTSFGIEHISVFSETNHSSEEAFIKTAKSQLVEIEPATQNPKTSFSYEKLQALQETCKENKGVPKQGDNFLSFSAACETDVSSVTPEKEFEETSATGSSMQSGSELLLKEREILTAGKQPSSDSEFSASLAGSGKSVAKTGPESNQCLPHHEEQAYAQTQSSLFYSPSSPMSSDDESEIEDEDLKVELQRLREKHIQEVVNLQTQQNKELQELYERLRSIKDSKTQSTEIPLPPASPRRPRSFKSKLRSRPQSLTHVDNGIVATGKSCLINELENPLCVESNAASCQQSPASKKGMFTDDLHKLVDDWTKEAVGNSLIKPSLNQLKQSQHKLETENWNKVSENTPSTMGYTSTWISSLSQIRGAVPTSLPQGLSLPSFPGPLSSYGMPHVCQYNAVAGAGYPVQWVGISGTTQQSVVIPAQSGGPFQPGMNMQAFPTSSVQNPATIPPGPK
Sequence of Serine/threonine-protein kinase SIK3 (Homo sapiens) (Q9Y2K2 whole entry, looked up, canonical isoform): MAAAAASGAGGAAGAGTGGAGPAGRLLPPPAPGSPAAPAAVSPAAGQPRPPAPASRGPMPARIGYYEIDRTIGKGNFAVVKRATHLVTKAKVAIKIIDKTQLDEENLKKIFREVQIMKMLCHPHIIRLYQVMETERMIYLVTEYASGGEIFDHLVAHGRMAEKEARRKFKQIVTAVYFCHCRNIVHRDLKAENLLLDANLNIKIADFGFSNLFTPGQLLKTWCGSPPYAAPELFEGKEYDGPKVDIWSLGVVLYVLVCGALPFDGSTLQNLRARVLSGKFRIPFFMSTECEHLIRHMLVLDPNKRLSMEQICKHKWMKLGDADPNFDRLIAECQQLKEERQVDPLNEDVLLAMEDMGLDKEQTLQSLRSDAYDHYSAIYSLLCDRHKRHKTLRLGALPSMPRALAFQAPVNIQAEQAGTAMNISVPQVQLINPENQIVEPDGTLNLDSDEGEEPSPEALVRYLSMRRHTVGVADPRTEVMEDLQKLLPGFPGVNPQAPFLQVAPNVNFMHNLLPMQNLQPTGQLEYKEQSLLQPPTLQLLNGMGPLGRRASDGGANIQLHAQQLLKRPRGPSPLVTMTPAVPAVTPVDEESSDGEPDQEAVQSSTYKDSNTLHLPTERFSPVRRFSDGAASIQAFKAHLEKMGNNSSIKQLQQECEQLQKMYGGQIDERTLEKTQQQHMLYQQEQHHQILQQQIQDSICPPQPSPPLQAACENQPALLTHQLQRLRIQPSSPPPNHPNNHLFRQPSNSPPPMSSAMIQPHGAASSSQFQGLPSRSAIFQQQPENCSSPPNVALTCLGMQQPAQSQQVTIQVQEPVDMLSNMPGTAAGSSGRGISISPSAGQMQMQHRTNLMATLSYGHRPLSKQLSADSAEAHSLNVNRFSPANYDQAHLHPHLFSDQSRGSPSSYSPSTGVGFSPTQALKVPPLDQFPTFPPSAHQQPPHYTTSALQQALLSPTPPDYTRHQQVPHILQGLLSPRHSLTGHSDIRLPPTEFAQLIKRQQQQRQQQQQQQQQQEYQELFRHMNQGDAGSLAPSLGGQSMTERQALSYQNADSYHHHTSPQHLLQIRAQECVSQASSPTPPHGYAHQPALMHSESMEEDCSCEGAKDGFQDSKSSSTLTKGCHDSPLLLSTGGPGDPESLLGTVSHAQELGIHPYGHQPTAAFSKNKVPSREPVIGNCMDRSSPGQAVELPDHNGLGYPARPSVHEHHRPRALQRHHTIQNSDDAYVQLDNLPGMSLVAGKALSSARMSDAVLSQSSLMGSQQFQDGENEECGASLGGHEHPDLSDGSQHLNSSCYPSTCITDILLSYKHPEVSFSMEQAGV

inhibition [1] [%] | inhibition [2] [%] | inhibition [3] [%] | inhibition [4] [%] | inhibition [5] [%] | inhibition [6] [%] | inhibition [7] [%] | inhibition [8] [%] | inhibition [9] [%] | SMILES
-2.44 | 3.68 | 2.39 | 1.13 | 6.36 | 3.38 | 6.53 | 46.8 | 13 | COCCNC(=O)c1ccc2c(c1)nc(-c1cnc(-c3ccc(Cl)cc3)[nH]1)n2CCOC
25.9 | 7.55 | 3.48 | -0.59 | 82.1 | 5.98 | 99.6 | 22.6 | 8.37 | CS(=O)(=O)c1cccc(Nc2nccc(-c3sc(N4CCOCC4)nc3-c3cccc(NS(=O)(=O)c4c(F)cccc4F)c3)n2)c1
1.93 | 5.44 | 11.2 | 0.69 | 49.2 | -3.81 | 9.52 | 19.9 | 12.9 | CC(C)(C)c1cc(NC(=O)Nc2ccc(Oc3ccncc3)cc2)no1
